Paper PMC11510177, “New Phytol Derivatives with Increased Cosmeceutical Potential” (Molecules, 2024)
Like-named read-outs stand apart in the source and are kept apart here.

Key:
tyrosinase = target: T1, tyrosinase (Agaricus bisporus, UniProt C7FF04); test: Tyrosinase inhibition assay; type: biochemical
T1 construct: purchased Sigma-Aldrich
Method: The extracts were assayed by adapting the tyrosinase inhibition method described by Shimizu et al. and modified by Manosroi et al.. […] The experiments were carried out in triplicate. For each concentration, enzyme activity was calculated as a percentage of the velocities compared to that of the assay using buffer without any inhibitor.

elastase = test: Elastase inhibition assay; type: biochemical; conditions: 100 µM
Method: The extracts were assayed by the method described by Ndlovu et al. with some modifications. In brief, 25 μL of elastase enzyme solution (0.3 U/mL), 50 μL of ten serial concentrations of the extracts or fractions (0.100–100 μM dissolved in 100 mM HEPES buffer, pH 7.5 containing no more than 2.5 % DMSO), and 125 μL HEPES buffer were mixed in a 96-well plate and incubated at room temperature for 20 min. Then, 50 μL of N-methoxysuccinyl-Ala-Ala-Pro-Val-p-nitroanilide (1 mM) was added. The enzyme activity was measured at 405 nm in the moment of substrate addition and after 40 min of incubation at 25 °C. N-Methoxysuccinyl-Ala-Ala-Pro-chloromethyl ketone at 0.100–100 μM was used as a positive control. The experiments were carried out in triplicate. For each concentration, enzyme activity was calculated as a percentage of the velocities compared to that of the assay, using buffer without any inhibitor. The IC50 value, which was the sample concentration that inhibited 50% of the enzyme activity, was determined interpolation from the % elastase inhibition vs. concentration curve.

collagenase = test: Collagenase inhibition assay; type: biochemical; conditions: 100 µM; for fold increase in collagenase inhibition over phytol: compared to phytol
Method: An adaptation of the method of Mandl et al. was used to determine anti-collagenase activity. The following was added to 2 mL test tubes: 25 μL of collagenase solution (0.8 U/mL); 25 μL TES buffer (50 mM) with 0.36 mM calcium chloride, pH 7.4; and 50 μL of test sample or the reference compound EDTA (with concentrations ranging between 0.100 and 100 μM). The tubes were incubated in a water bath at 37 °C for 20 min. Thereafter, 50 μL FALGPA (1 mM) solution was added to the tubes and further incubated for 60 min at 37 °C. To all tubes, 200 μL of a solution containing equal volumes of a 1.6 mg/mL tin chloride (II) solution in 200 mM citrate buffer, pH 5, and 50 mg/mL ninhydrin solution in DMSO were added. All tubes were placed in a water bath (100 °C) for 5 min and left to cool to room temperature before adding 200 μL of 50% isopropanol to each tube. Contents in the tubes were then transferred to respective wells in 96-well plates. Absorbance was detected at 550 nm. EDTA was used as a control inhibitor. Percentage of collagenase inhibition was calculated as % Collagenase inhibition = [(Abscontrol − Abssample)]/Abscontrol] × 100 (5) where Abscontrol is the absorbance of buffer + collagenase; Abseample is the absorbance of buffer + collagenase + sample/standard.
All assays were carried out in triplicate and results expressed as IC50, i.e., as the concentration yielding 50% of collagenase inhibition, calculated by interpolation from the % collagenase inhibition vs. concentration curve.

[1] = DPPH radical scavenging assay; conditions: 100 µM
Method: Antioxidant activity was assayed by the 1,1-diphenyl-2-picryl-hydrazyl (DPPH) radical scavenging assay. Serial dilutions of studied extracts or reference compound (Trolox) were carried out in 96-well microplates, with concentrations ranging between 0.100 μM and 100 μM in methanol. DPPH dissolved in methanol was added to the microwells, yielding a final concentration of 45 µg/mL, and the absorbance at 515 nm was measured after 30 min in the dark. In each assay, a control was prepared in which the same amount of solvent substituted the sample or standard. Percentage of antioxidant activity (% AA) was calculated as %AA = [(Abscontrol − Abssample)/Abscontrol] × 100 (1) where Abscontrol is the absorbance of the control and Abssample is the absorbance of the alga extract or standard. All assays were carried out in triplicate and the results expressed as IC50, i.e., as the concentration yielding 50% scavenging of DPPH, calculated by interpolation from the % AA vs. concentration curve.

hyaluronidase = test: Hyaluronidase inhibition assay; type: biochemical; conditions: 100 µM; for increase in hyaluronidase inhibition over phytol: relative to phytol
Method: The assay was conducted following the Sigma protocol with minor adjustments. In a microplate, 25 µL of 5 U/mL of hyaluronidase prepared in 20 mM sodium phosphate buffer (pH 7.0) with 77 mM sodium chloride and 0.01% BSA, was pre-incubated with 50 µL of the sample in concentrations ranging from between 0.100 μM and 100 μM for 10 min at 37 °C. Subsequently, the assay was initiated by adding 25 µL hyaluronic acid (0.015 % in 300 mM sodium phosphate, pH 5.35) to the incubation mixture and incubated for an additional 30 min at 37 °C. Undigested hyaluronic acid was precipitated with 200 µL acid albumin solution composed of 0.1 % bovine serum albumin in 24 mM sodium acetate and 79 mM acetic acid (pH 3.75). After standing at room temperature for 10 min, the absorbance of the reaction mixture was measured at 600 nm. The absorbance in the absence of enzymes (blank) served as the reference value for maximum absorbance. Sodium aurothiomalate was used as a control inhibitor. Enzyme activity was verified by a control experiment conducted simultaneously, in which the enzyme was pre-incubated with buffer instead, followed by the assay procedures described above. The inhibitory activity of the test compound was determined as follows:%Inhibition = [1 − (Absblank − Abssample)/(Absblank − Abscontrol)] × 100(4) where Absblank is the absorbance of the reaction without enzyme, Abssample is the absorbance of the extract or standard compound sodium aurothiomalate, and Abscontrol is the absorbance of the enzyme without inhibitor. The IC50 value, which was the sample concentration that inhibited 50% of the enzyme activity, was determined by interpolation from the % hyaluronidase inhibition vs. concentration curve.

[2] = ABTS radical scavenging assay; conditions: 100 µM
Method: The method of Re et al. was adopted to perform the ABTS radical scavenging assay. The stock solutions included a 7 mM ABTS solution (2,2′-azinobis-(3 ethylbenzothiazoline 6 sulfonic acid)) and a 2.4 mM potassium persulfate solution. The working solution was prepared by mixing the two stock solutions in equal quantities and allowing for them to react for 12–16 h at room temperature in the dark. The solution was then diluted by mixing 1 mL ABTS solution with the amount of methanol necessary to obtain an absorbance of 0.7 at 734 nm. Serial dilutions of studied extracts or reference compound (Trolox) were carried out in 96-well microplates, with concentrations ranging between 0.100 μM and 100 μM in methanol. ABTS solution was then added to the microwells, and after 8 min of incubation, the absorbance was recorded at […]. In each assay, a negative control was prepared in which the same amount of solvent substituted the sample. The percentage of antioxidant activity (% AA) was calculated as %AA = [(Abscontrol − Abssample)/Abscontrol] × 100 (2) where Abscontrol is the absorbance of ABTS radical + methanol; Abssample is the absorbance of ABTS radical + sample/standard.
All assays were carried out in triplicate and results expressed as IC50, i.e., as the concentration yielding 50% scavenging of ABTS, calculated by interpolation from the % AA vs. concentration curve.

[3] = read-out: IC50 against tyrosinase

T1 sequence (C7FF04 1-392 limits assumed): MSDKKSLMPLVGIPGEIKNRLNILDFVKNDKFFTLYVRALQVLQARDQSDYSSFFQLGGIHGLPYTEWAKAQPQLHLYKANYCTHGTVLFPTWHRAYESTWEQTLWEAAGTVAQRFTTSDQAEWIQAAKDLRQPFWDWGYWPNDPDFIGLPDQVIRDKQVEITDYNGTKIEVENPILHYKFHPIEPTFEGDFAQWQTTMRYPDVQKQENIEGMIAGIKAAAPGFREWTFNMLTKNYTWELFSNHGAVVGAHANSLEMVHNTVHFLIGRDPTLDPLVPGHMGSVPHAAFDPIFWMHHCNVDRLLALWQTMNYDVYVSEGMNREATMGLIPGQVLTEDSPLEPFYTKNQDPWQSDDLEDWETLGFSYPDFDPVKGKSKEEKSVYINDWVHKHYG

Row | Structure (SMILES) | IC50 (tyrosinase; IC50 against tyrosinase) [µM] | elastase inhibition (elastase) | collagenase inhibition (collagenase) [%] | Percentage of DPPH scavenging [1] | hyaluronidase inhibition (hyaluronidase) [%] | IC50 (tyrosinase; [3]) [µM] | Percentage of ABTS scavenging [2] | fold increase in collagenase inhibition over phytol (collagenase) [fold] | increase in hyaluronidase inhibition over phytol (hyaluronidase) | increase in ABTS antioxidant activity compared to phytol (1) [2] [%]
1 | CC(=CCO)CCCC(C)CCCC(C)CCCC(C)C (stereo not shown) [Compound 1, 3,7,11,15-tetramethylhexadec-2-en-1-ol, reference compound] | 77.5 ± 0.8 | 6.4% | 31.89 | – | – | – | – | – | – | –
2 | Cc1c(C)c2c(c(C)c1O)CCC(C)(C(=O)O)O2 (stereo not shown) [Trolox, 6-hydroxy-2,5,7,8-tetramethylchroman-2-carboxylic acid, reference compound] | – | – | – | 97.54% | – | – | – | – | – | –
3 | C/C(=C\COC(=O)C=Cc1ccc([N+](=O)[O-])cc1)CCC[C@H](C)CCC[C@H](C)CCCC(C)C [Compound 1g, Phytyl 4-nitrocinnamoate] | – | – | 41.02 | 37.46% | 23.06 | 64.1 ± 0.67 | 28.74% | 1.28 | – | –
4 | C/C(=C\COC(=O)c1ccco1)CCC[C@H](C)CCC[C@H](C)CCCC(C)C [Compound 1h, Phytyl 2-furoate] | – | 28.3% | 22.37 | – | 36.02 | > 100 | – | – | 15–20% | –
5 | C/C(=C\COC(=O)c1cccs1)CCC[C@H](C)CCC[C@H](C)CCCC(C)C [Compound 1i, Phytyl 2-thiophenecarbonoate] | – | 18.19% | 41.68 | – | – | > 100 | 40.58% | 1.28 | – | –
6 | COc1cccc(C(=O)OC/C=C(\C)CCC[C@H](C)CCC[C@H](C)CCCC(C)C)c1 [Compound 1c, Phytyl 3-methoxybenzoate] | – | low | – | – | 40.1 | 79 ± 0.87 | – | 1.42 | 28% | –
7 | C/C(=C\COC(=O)c1ccccc1)CCC[C@@H](C)CCC[C@@H](C)CCCC(C)C (stereo in doubt) [Compound 1a, Phytyl benzoate] | – | 43.28% | – | 4.75% | 37.32 | 34.73 ± 0.1 | – | – | 15–20% | –
8 | COc1ccc(C(=O)OC/C=C(\C)CCC[C@H](C)CCC[C@H](C)CCCC(C)C)cc1 [Compound 1d, Phytyl 4-methoxybenzoate] | – | – | 49.67 | – | 22.54 | 27.9 | about 50% | 1.56 | – | 30
9 | C/C(=C\COC(=O)/C=C/c1ccccc1)CCC[C@@H](C)CCC[C@@H](C)CCCC(C)C (stereo in doubt) [Compound 1f, Phytyl cinnamoate] | – | – | – | about 50% | – | 95.68 ± 0.94 | about 50% | – | – | 30
10 | COc1ccccc1C(=O)OC/C=C(\C)CCC[C@H](C)CCC[C@H](C)CCCC(C)C [Compound 1b, Phytyl 2-methoxybenzoate] | – | low | – | – | 34.74 | 59.62 ± 0.51 | – | – | – | –
11 | C/C(=C\COC(=O)c1ccc(Cl)cc1)CCC[C@H](C)CCC[C@H](C)CCCC(C)C [Compound 1e, Phytyl 4-chlorobenzoate] | – | 27.78% | – | 11.12% | 14.66 | > 100 | – | 1.38 | – | 30
